Where two headings read alike, the source gives them in different places.
What was measured:
[1] = tested on: DB lymphoma cells
Procedure: (§1) (1) Cells were plated in a 10 cm culture plate to grow a density of about 90%. The medium was removed, and the adherent cells were washed once with a PBS buffer. 1 mL of trypsin was added, and immediately discarded after mixing well. The cells were placed in the incubator and digested for about 5 min, and then about 10 ml of fresh medium was added. 10 μL was taken for counting.
(§2) (2) 10 μL of the well-mixed cells were taken and mixed into 10 μL of Trypan Blue solution, and counted.
(§3) (3) After counting, the cells were diluted to 1×10^5 cells/ml. The diluted cells were mixed well, and plated into a 24-well plate with 500 μL per well, i.e., about 50,000 cells per well.
(§4) (4) The cells plated in the 24-well plate were cultured for about 24h, and then drugs were added. Various test groups comprise 5 groups as follows: the single-drug group of PKF118-310 (with a concentration of 0.1 μM), the group of ascorbic acid (with a concentration of 0.5 mM), the group of PKF118-310 (with a concentration of 0.1 μM) in combination with ascorbic acid (with a concentration of 0.5 mM); the control group that is a cell group to which only solvent DMSO is added; and the blank group that is a group to which no cell is added and only solvent (DMSO) is added.
(§5) (5) After 24h of dosing, the medium was discarded. About 150 μL of trypsin was added and then discarded. The cells were digested for 5 min;
(§6) (6) After digestion, equivalent amounts of PBS were added into each well and mixed uniformly. Then, 10 μL/well of Trypan Blue solution was added and mixed uniformly. 10 μL of the well-mixed solution was taken and counted. In accordance with “Cell viability=Cell Count of Test Group/Cell Count of Control Group×100%”, the cell viability of various groups was calculated.
For example, as for the DB lymphoma cells, the control group involves adding the solvent DMSO alone, the Vc group involves adding 2 mM of ascorbic acid, the low-dose PKF group involves adding 2 μM of PKF118-310, the low-dose PKF+Vc group involves adding 2 μM of PKF118-310 and 2 mM of ascorbic acid, the high-dose PKF group involves adding 5 μM of PKF118-310, and the high-dose PKF+the Vc group involves adding 5 μM of PKF118-310 and 2 mM of ascorbic acid.

[2] = tested on: HCT116 human colon cancer cells; assay: cells; settings: HCT116 cells
Procedure: as §1, §2, §3, §4, §5, §6
The inhibitory effect of PKF118-310 on the MC38 human colon cancer cells and the HCT116 human […] cancer cells was detected in accordance with the corresponding method of Example 1.

[3] = tested on: SKOV3 human ovarian cancer cells; assay: cells; settings: SKOV3 cells
Procedure: as §1, §2, §3, §4, §5, §6
(§7) The inhibitory effect of PKF118-310 on the SKOV3 human ovarian cancer cells and the 3AO human ovarian cancer cells was detected in accordance with the corresponding method of Example 1.

[4] = tested on: 3AO human ovarian cancer cells; assay: cells; settings: 3AO cells
Procedure: as §1, §2, §3, §4, §5, §6, §7

[5] = tested on: T cells; assay: Cell viability of immune cells by cell count; assay type: cell-based; settings: 0.1 μM PKF118-310 in combination with 0.5 mM ascorbic acid, 24h
Procedure: (§8) Immune cells comprise T cells and Macrophages, wherein the T cells are cultured with a 1640 medium, and the macrophages are cultured with a DMEM medium. The particular procedures are follows:
(§9) 10 μL was taken for counting.
(§10) (5) After 24h of dosing, the medium was discarded. […] The cells were digested for 5 min;

[6] = tested on: macrophages; assay: Cell viability of immune cells by cell count; assay type: cell-based; settings: 0.1 μM PKF118-310 in combination with 0.5 mM ascorbic acid, 24h
Procedure: as §8, §9, §10

[7] = tested on: 143B human osteosarcoma cells; assay: Cell counts of drug combination administration (Trypan Blue), cell viability; settings: 143B cells
Procedure: as §1, §2, §3
(§11) (4) The cells plated in the 24-well plate were cultured for about 24h, and then drugs were added. […]
as §5, §6
(§12) The coefficient of drug in interaction (CDI) was used to evaluate the nature of the interaction between the two drugs. The test groups were divided into the control group, the group of A drug, the group of B drug and the group of AB in combination, and used for detecting the cell viability in A, B and AB groups, respectively.

[8] = tested on: HOS human osteosarcoma cells; assay: as above
Procedure: as §1, §2, §3, §11, §5, §6, §12

[9] = tested on: 143B human osteosarcoma cells; assay: Migration of osteosarcoma cells (scratch lines, photographs at 12h and 24h); assay type: cell-based; settings: 143B cells, 0.1 μM PKF118-310 in combination with 0.5 mM Vc
Procedure: (§13) (1) HOS human osteosarcoma cells and 143B human osteosarcoma cells were subcultured at 37° C., 5% CO2 in an incubator with a RPMI-1640 medium containing 10% fetal bovine serum.
as §9
(§14) The diluted cells were plated into a 12-well plate with 1 mL per well, i.e., about 100,000 cells per well.
(§15) (4) The cells plated in the 12-well plate were cultured to a density of more than 80%. Then, a control group (to which DMSO was added), as well as groups to which 0.1 μM of PKF118-310, 0.5 mM Vc, and a combination of 0.1 μM of PKF118-310 with 0.5 mM sodium ascorbate were respectively added were prepared. Parallel lines were drawn with the tip of a 10 μL pipette at the bottom of the plate.
(§16) (5) The cells were placed into a 37° C., 5% CO2 incubator for incubation, and observed and recorded by photographs at 12h and 24h.

[10] = tested on: HOS human osteosarcoma cells; assay: as above; assay type: cell-based; settings: 0.1 μM PKF118-310 in combination with 0.5 mM Vc
Procedure: as §13, §9, §14, §15, §16

[11] = 0.3 μM in combination with 0.5 mM sodium ascorbate
[12] = 0.5 μM in combination with 0.5 mM sodium ascorbate
[13] = 0.1 μM in combination with 0.5 mM sodium ascorbate

Cn1ncnc2c(=O)n(C)c(=O)nc1-2 [PKF118-310]
cell viability ([1]; 2 μM and 2 mM ascorbic acid): 12% | cell viability ([1]; 5 μM and 2 mM ascorbic acid): 11% | CDI value ([1]; high-dose (5 μM) with 2 mM ascorbic acid): 0.18 | CDI value ([1]; low-dose (2 μM) with 2 mM ascorbic acid): 0.17 | cell viability ([1]; single drug 2 μM (low-dose)): 72% | cell viability ([1]; single drug 5 μM (high-dose)): 67% | CDI value [2, 11]: 0.24 | cell viability [2, 11]: 22% | cell viability ([2]; single-drug 0.3 μM): 92% | effect on the body weight of mice (PKF118-310 0.7 mg/kg s.c. in combination with ascorbate 1 g/kg i.v. every 3 days): no effect on the body weight of mice | effect on the body weight of mice (alone, PKF118-310 0.7 mg/kg s.c. or ascorbate 1 g/kg i.v. every 3 days): no effect on the body weight of mice | CDI value [3, 11]: 0.31 | cell viability [3, 11]: 28% | CDI value [3, 12]: 0.34 | cell viability [3, 12]: 20% | cell viability ([3]; single-drug 0.3 μM): 94% | cell viability ([3]; single-drug 0.5 μM): 61% | CDI value [4, 13]: 0.35 | cell viability [4, 13]: 31% | CDI value [4, 11]: 0.19 | cell viability [4, 11]: 13% | cell viability ([4]; 0.05 M in combination with 0.5 mM sodium ascorbate): 58% | CDI value ([4]; in combination with 0.5 mM sodium ascorbate): 0.60 | cell viability ([4]; single-drug 0.1 μM): 92% | cell viability ([4]; single-drug 0.3 μM): 69% | cell viability ([4]; single-drug 0.05 M): 101% | effect on immune cells (cell viability) [5]: does not have effect on the immune cells | effect on immune cells (cell viability) [6]: does not have effect on the immune cells | CDI value [7, 13]: 0.04 | cell viability [7, 13]: 2% | cell viability ([7]; single-drug 0.1 μM, 24h): 91% | CDI value (coefficient of drug interaction) [8, 13]: 0.12 | cell viability [8, 13]: 10% | cell viability ([8]; single-drug 0.1 μM, 24h): 94% | migration of cells [9]: significantly inhibit the migration | migration of cells [10]: significantly inhibit the migration

Source: patent US20230181524A1, “PHARMACEUTICAL COMBINATION AND USE THEREOF” (NATURAL MEDICINE INSTITUTE OF ZHEJIANG YANGSHENGTANG CO., …, priority 2020, published 2023)
